Data published in US8592446B2, “[1,10]-phenanthroline derivatives for the treatment of neurodegenerative or haematological diseases” (Noscira, S.A., priority 2007, dated 2013).

What was measured:
Type in all cases: cell-based
[1] = test system: SH-SY5Y human neuroblastoma cells; test: Toxicity: LDH activity release in SH-SY5Y cells; details: 24 h; for Maximum concentration tested for toxicity: increasing concentrations from 1 μM up to 1 mM
Procedure: The potential effects on cell viability of the assayed compounds are assayed in SH-SY5Y human neuroblastoma cells, by quantification of Lactate dehydrogenase (LDH) activity release. SH-SY5Y human neuroblastoma cells are seeded into 96-well culture plates at 10^4 cells/well. The medium is then removed and the cells incubated with different concentrations of the compounds during 24 h. The compounds are tested at increasing concentrations starting from 1 μM, in fresh culture medium, in order to find the minimum concentration at which the compounds are toxic, up to a maximum of 1 mM. After 24 h, the medium is removed and cells attached to the bottom of the well are lysed by adding 50 μl of Krebs-Hepes; Triton X-100 1% during 5 minutes at room temperature. For LDH release quantification, the Roche cytotoxicity detection kit (Cat.
No. 11 644 793 001) is used. The LDH activity is measured by its absorbance at 492 nm with reference wavelength 620 nm.
In Table 1, for each compound the maximum concentration at which toxicity was tested is indicated in the second column. In the third column, it is indicated whether at this maximum concentration the compound was toxic or not. All the compounds, with the exception of Compound 3, resulted non-toxic at the concentration for which activity was found, in most of the cases even at a 1000-fold concentration. Thus, the compounds may be considered non-toxic.

[2] = test system: SH-SY5Y human neuroblastoma cells; test: Protection against hydrogen peroxide-induced cell death (LDH); details: compound 1 h before H2O2 100 μM, 24 h; for minimal effective concentration: Homo sapiens, SH-SY5Y, read-out: Protect. H2O2 (minimum concentration for which protection was determined)
Procedure: The aim of this assay is to determine the neuroprotective effect of the compounds of formula (I), when human neuroblastoma cells are exposed to oxidative stress induced by hydrogen peroxide, which is highly deleterious to the cell and its accumulation causes oxidation of cellular targets such as DNA, proteins, and lipids leading to mutagenesis and cell death.
SH-SY5Y human neuroblastoma cells are seeded into 96-well culture plate at a density of 10^4 cells/well. Cells are exposed to different concentrations of the compound one hour before the treatment with H2O2 100 μM during 24 h. 5 mM N-acetylcysteine (NAC), a known anti-oxidant agent was used as a positive control, and preincubated 1 hour before the treatment with H2O2. After 24 h, the medium is removed and cells attached to the bottom of the well are lysed by adding 50 μl of Triton X-100 1% in Krebs-Hepes during 5 minutes at room temperature. For LDH release quantification, Roche cytotoxicity detection kit (Cat. No. 11 644 793 001) was used.

SH-SY5Y cells = test: Neuroprotection against Aβ25-35 toxicity (LDH assay); details: Homo sapiens, pre-treated 1 hour, 200 μM Aβ25-35 24 hours, read-out: Protect. beta-Amyloid25-35 (minimum concentration showing neuroprotection)
Procedure: In order to evaluate potential neuroprotection of compounds, SH-SY5Y cells, cultured in 96-well plates, were pre-treated for 1 hour with the compound at different concentrations and then exposed 24 hours to 200 μM Aβ25-35 (Neosystem) to induce extensive oxidative stress and cell death. The ability of the compound of protecting against this toxicity is then evaluated by measuring intracellular LDH, using the colorimetric LDH assay.
It is widely accepted that the neurotoxic activity of Aβ resides within amino acids 25-35 (see e.g. Yankner B A et al., (1990) Neurotrophic and neurotoxic effects of amyloid β protein: reversal by tachykinin neuropeptides; Science 250:279-282).

[3] = test system: Aβ (1-40) secretion by CHO7W cells (stably transfected with human APP751 wt cDNA); test: Inhibition of Aβ(1-40) secretion (ELISA, cellular supernatants); details: Aβ 1-40 ELISA
Text: To quantitate Aβ secretion ELISA-based method was used. The assay consists in detection of antigen by selective monoclonal anti-Aβ-antibodies at two different epitopes forming a “Sandwich-complex”, that is detected by colorimetric measure due to the binding of a secondary antibody conjugated with peroxidase that catalyses the conversion of a substrate or chromogen, TMB, into a coloured product, directly proportional to the peptide quantity in the sample. The Aβ production has been analyzed by ELISA, using a colorimetric commercial kit: Immunoassay Kit Human β Amyloid 1-40 (Biosource).
Aβ (1-40) were quantified from cellular supernatants. An APP-transfected cell line has been employed for the experiments: CHO7W (stably transfected with human APP751 wt cDNA). The cells were grown in a culture medium consisting of DMEM supplemented with 2% Fetal bovine serum, 1% penicillin-streptomycin, 1% L-glutamine and 200 μg/ml G418. Cells are seeded in 96-well culture microplate, at 5000 cells/well and treatment with different compounds at different concentrations is performed 24 hour after seeding.
OM99-2 (H-5108, Bachem), a BACE inhibitor, was used as Aβ secretion reduction positive control in all the Aβ secretion studies. The cells were treated with this compound at 3 μM concentration, culture media were collected at 24 hours.

CSc1cc(/C=N/O)nc2c1ccc1cccnc12 [Compound 4, 4-Methylsulfanyl-[1,10]phenanthroline-2-carbaldehyde oxime]
Maximum concentration tested for toxicity [1]: 1 mM | Toxic at maximum concentration tested (Yes/No) ([1]; at 1 mM): Yes | minimal effective concentration [2]: 0.05 µM | minimal effective concentration (SH-SY5Y cells): 0.5 µM | Inhibition secretion beta-amyloid (minimum concentration) [3]: 0.05 mM

CC(C)Sc1cc(/C=N/O)nc2c1ccc1cccnc12 [Compound 7, 4-Isopropylsulfanyl-[1,10]phenanthroline-2-carbaldehyde oxime]
Maximum concentration tested for toxicity [1]: 1 mM | Toxic at maximum concentration tested (Yes/No) ([1]; at 1 mM): Yes | minimal effective concentration [2]: 0.05 µM | minimal effective concentration ([3]; read-out: Inhibition secretion beta-amyloid (minimum concentration)): 1 nM

COCCOc1cc(/C=N/O)nc2c1ccc1cccnc12 [Compound 8, 4-(2-Methoxy-ethoxy)-[1,10]phenanthroline-2-carbaldehyde oxime]
Maximum concentration tested for toxicity [1]: 1 mM | Toxic at maximum concentration tested (Yes/No) ([1]; at 1 mM): No | Protect. H2O2 (minimum concentration for which protection was determined) [2]: 50 nM | minimal effective concentration (SH-SY5Y cells): 0.5 µM | Inhibition secretion beta-amyloid (minimum concentration) [3]: 1 mM

CCN(CC)CCOc1cc(/C=N/O)nc2c1ccc1cccnc12 [Compound 10, 4-(2-Diethylamino-ethoxy)-[1,10]phenanthroline-2-carbaldehyde oxime]
Maximum concentration tested for toxicity [1]: 0.001 mM | Toxic at maximum concentration tested (Yes/No) ([1]; at 1 μM): Yes | Protect. H2O2 (minimum concentration for which protection was determined) [2]: 50 nM | minimal effective concentration (SH-SY5Y cells): 0.5 µM | Inhibition secretion beta-amyloid (minimum concentration) [3]: 1 mM
